Results taken from article PMC5286460 (ACS Omega, 2017).
“Also recorded” adds a separate entry of the source.

Tests used:
[1] = UV–vis absorption and fluorescence spectroscopy; assay type: physicochemical; conditions: 10% DMSO; for λmax abs: 10-15 μM
[2] = tested on: genetically modified PDAC mice; assay: In vivo biodistribution and ex vivo pathology in PDAC tumor-bearing mice; design: species or system mouse; conditions: 100 nmol systemic, 1.5 h
Capan-1 cells [3] = assay: Subcellular colocalization, live cell imaging; assay type: cell-based, human; conditions: 0.5 μM, 1 h incubation
[4] = Cell viability by Cell Titer-Blue assay; assay type: cell-based; conditions: human, Capan-1 cells
[5] = tested on: pancreas tissue derived from healthy and PDAC mice; assay: Ex vivo staining of pancreas tissue from healthy and PDAC mice; conditions: PDAC mouse pancreas tissue slides
healthy CD-1 mice = assay: In vivo biodistribution imaging in healthy mice; design: species or system mouse; conditions: for pancreas specificity / accumulation: systemic administration
Capan-1 cells [6] = assay: Cellular uptake in Capan-1 cells; assay type: cell-based, human; conditions: within 30 min of application
[7] = acidic solution pH 1.9, 12.5 mM HCl

Row | Compound | Stokes shift ([1]; pH 7.4 phosphate buffer) [nm] | brightness ([1]; pH 7.4 phosphate buffer) | λmax em ([1]; pH 7.4 phosphate buffer) [nm] | φ (quantum yield) ([1]; pH 7.4 phosphate buffer) [%] | λmax abs ([1]; pH 7.4 phosphate buffer) [nm] | pancreas specificity / accumulation (healthy CD-1 mice) | other results
1 | COC(=O)c1ccccc1-c1c2ccc(=N)cc-2oc2c1ccc1cccc(O)c12.Cl [Compound 3] |  |  |  |  |  |  | Stokes shift [1, 7]: 62 nm; brightness [1, 7]: 226; λmax em [1, 7]: 604 nm; φ (quantum yield) [1, 7]: 1.14%; λmax abs [1, 7]: 542 nm
2 | COC(=O)c1ccccc1-c1c2ccc(=O)cc-2oc2c1ccc1cccc(N(C)C)c12 [Compound 8] |  |  |  |  |  |  | λmax em ([1]; basic solution pH 12.1, 12.5 mM NaOH): 530 nm
3 | COC(=O)c1ccccc1C1=c2cc3c4c(c2Oc2c1ccc1cccc(O)c21)CCC[N+]=4CCC3.[Cl-] [Compound 11] |  |  |  |  |  |  | Stokes shift [1, 7]: 39 nm; brightness [1, 7]: 2314; λmax em [1, 7]: 624 nm; φ (quantum yield) [1, 7]: 15.3%; λmax abs [1, 7]: 585 nm
4 | COC(=O)c1ccccc1C1=c2cc3c4c(c2Oc2c1ccc1cccc(OC)c21)CCC[N+]=4CCC3.[Cl-] [Compound 12] | 40 | 2022 | 622 | 11.38 | 582 | improved pancreas specificity | PDAC-specific fluorescence / accumulation [2]: Significantly more fluorescence; also recorded: significantly higher than that in the surrounding tissues; subcellular localization (Capan-1 cells [3]): extensive accumulation in the mitochondria; IC50 at 24 h [4]: 17.8 µM; ex vivo staining pattern in cancerous tissue [5]: localized in the PDAC-associated ductal epithelial cells; uptake in normal pancreas tissue as compared to MB (healthy CD-1 mice; 100 nmol systemic (MB 120 nmol)): 4 fold; fluorescence SBR in the pancreas vs surrounding organs (healthy CD-1 mice; 4 h time point): highest and most persistent fluorescence SBR in the pancreas
5 | COC(=O)c1ccccc1C1=c2cc3c4c(c2Oc2c1ccc1cccc(N)c21)CCC[N+]=4CCC3.[Cl-] [Compound 13] | 139 | 85 | 740 | 0.66 | 601 | diminished pancreas accumulation | relative cellular uptake (Capan-1 cells [6]): greatest uptake; subcellular localization (Capan-1 cells [3]): extensive accumulation in the mitochondria; IC50 at 24 h [4]: 26.1 µM
6 | CN(C)c1ccc2nc3ccc(=[N+](C)C)cc-3sc2c1 [MB, methylene blue, reference compound] |  |  |  |  |  | poor penetration into normal pancreas tissue; also recorded: diminished pancreas accumulation | 

More lines, main results first:

Row | Stokes shift ([1]; pH 7.4 phosphate buffer) [nm] | brightness ([1]; pH 7.4 phosphate buffer) | λmax em ([1]; pH 7.4 phosphate buffer) [nm] | φ (quantum yield) ([1]; pH 7.4 phosphate buffer) [%] | λmax abs ([1]; pH 7.4 phosphate buffer) [nm] | Compound | pancreas specificity / accumulation (healthy CD-1 mice) | other results
7 | 38 | 2094 | 606 | 9.32 | 568 | COC(=O)c1ccccc1-c1c2ccc(=[N+](C)C)cc-2oc2c1ccc1cccc(OC)c12.[Cl-] [Compound 6] |  | 
8 | 184 | 25 | 760 | 0.18 | 576 | COC(=O)c1ccccc1-c1c2ccc(=N)cc-2oc2c1ccc1cccc(N)c12.Cl [Compound 9] |  | 
